Patent publication US12052991B2, “Substituted pyridinyloxybenzenes and salts thereof and use thereof as herbicidal agents” (Bayer Aktiengesellschaft, priority 2018, dated 2024)

How the values were obtained:
Type in all cases: in vivo
Poa annua (POAAN) [1] = experiment: Herbicidal post-emergence action (Table B3); conditions: rated visually after about 3 weeks, 100% = plants have died, 0% = like control plants
Procedure: (§1) Seeds of mono- and dicotyledonous weed plants were placed in plastic pots in sandy loam soil (doubly sown with in each case one species of mono- or dicotyledonous weed plants per pot), covered with soil and cultivated in a greenhouse under controlled growth conditions. 2 to 3 weeks after sowing, the test plants were treated at the one-leaf stage. The compounds of the invention, formulated in the form of wettable powders (WP) or as emulsion concentrates (EC), were applied onto the green parts of the plants as aqueous suspension or emulsion with addition of 0.5% additive at a water application rate of 600 liters per hectare (converted). After the test plants had been kept in the greenhouse under optimum growth conditions for about 3 weeks, the activity of the preparations was rated visually in comparison to untreated controls. For example, 100% activity=the plants have died, 0% activity=like control plants. Tables B1 to B12 below show the effects of selected compounds of the general formula (I) according to Table 1 on various harmful plants and an application rate corresponding to 1280 or 320 g/ha, which were obtained by the experimental procedure mentioned above.

[2] = system: Abutilon theophrasti (ABUTH); experiment: Herbicidal post-emergence action (Table B5); conditions: 1280 g/ha; rated visually after about 3 weeks; 100% = plants have died, 0% = like control plants
Procedure: as §1

[3] = system: Amaranthus retroflexus (AMARE); experiment: Herbicidal post-emergence action (Table B6); conditions: visual rating about 3 weeks after treatment, 100% = plants have died, 0% = like control plants
Procedure: as §1

Stellaria media (STEME) [4] = experiment: Herbicidal post-emergence action (Table B8); conditions: visual rating about 3 weeks after treatment, 100% = plants have died, 0% = like control plants
Procedure: as §1

[5] = system: Alopecurus myosuroides (ALOMY); experiment: Herbicidal post-emergence action (Table B9); conditions: rated visually after about 3 weeks, 100% = plants have died, 0% = like control plants
Procedure: as §1

[6] = system: Digitaria sanguinalis (DIGSA); experiment: Herbicidal post-emergence action (Table B10); conditions: dosage 1280 g/ha; visual rating about 3 weeks after treatment; 100% = plants have died, 0% = like control plants
Procedure: as §1

Bassia scoparia (KCHSC) = experiment: Herbicidal post-emergence action (Table B11); conditions: dosage 1280 g/ha; visual rating about 3 weeks after treatment; 100% = plants have died, 0% = like control plants
Procedure: as §1

Veronica persica (VERPE) [7] = experiment: Herbicidal post-emergence action (Table B12); conditions: visual rating about 3 weeks after treatment, 100% = plants have died, 0% = like control plants
Procedure: as §1

Poa annua (POAAN) [8] = experiment: Herbicidal pre-emergence action, test C (Table C3); conditions: dosage 1280 g/ha; visual scoring after about 3 weeks; 100% = plants have died, 0% = like control plants
Source text: (§2) Seeds of mono- and dicotyledonous weed plants were placed in plastic pots in sandy loam soil (doubly sown with one species each of mono- or dicotyledonous weed plants per pot) and covered with soil. The compounds of the invention, formulated in the form of wettable powders (WP) or as emulsion concentrates (EC), were then applied onto the surface of the covering soil as aqueous suspension or emulsion with addition of 0.5% additive at a water application rate of 600 liters per hectare (converted). After the treatment, the pots were placed in a greenhouse and kept under good growth conditions for the test plants. After about 3 weeks, the effect of the preparations was scored visually in comparison with untreated controls as percentages. For example, 100% activity=the plants have died, 0% activity=like control plants. Tables C1 to C12 below show the effects of selected compounds of the general formula (I) according to Table 1 on various harmful plants and an application rate corresponding to 1280 or 320 g/ha, which were obtained by the experimental procedure mentioned above.

Setaria viridis (SETVI) = experiment: Herbicidal pre-emergence action, test C (Table C4); conditions: dosage 1280 g/ha; visual scoring after about 3 weeks; 100% = plants have died, 0% = like control plants
Source text: as §2

[9] = system: Amaranthus retroflexus (AMARE); experiment: Herbicidal pre-emergence action, test C (Table C6); conditions: visual scoring after about 3 weeks, 100% = plants have died, 0% = like control plants
Source text: as §2

[10] = system: Matricaria inodora (MATIN); experiment: Herbicidal pre-emergence action, test C (Table C7); conditions: dosage 1280 g/ha; visual scoring after about 3 weeks; 100% = plants have died, 0% = like control plants
Source text: as §2

Stellaria media (STEME) [11] = experiment: Herbicidal pre-emergence action, test C (Table C8); conditions: visual scoring after about 3 weeks, 100% = plants have died, 0% = like control plants
Source text: as §2

[12] = system: Digitaria sanguinalis (DIGSA); experiment: Herbicidal pre-emergence action, test C (Table C10); conditions: dosage 1280 g/ha; visual scoring after about 3 weeks; 100% = plants have died, 0% = like control plants
Source text: as §2

Veronica persica (VERPE) [13] = experiment: Herbicidal pre-emergence action, test C (Table C12); conditions: visual scoring vs untreated controls
Source text: as §2

[14] = system: harmful plants ABUTH, AMARE, ECHCG, LOLRI, MATIN, POAAN, SETVI, STEME, ALOMY, DIGSA, KCHSC and VERPE; experiment: Herbicidal post-emergence action, summary of Tables B1-B12; conditions: application rate of 1280 or 320 g of active ingredient per hectare; summary in words
Procedure: as §1, with “controls.” for “controls. For example, 100% activity=the plants have died, 0% activity=like control plants. Tables B1 to B12 below show the effects of selected compounds of the general formula (I) according to Table 1 on various harmful plants and an application rate corresponding to 1280 or 320 g/ha, which were obtained by the experimental procedure mentioned above.”
(§3) For example, 100% activity=the plants have died, 0% activity=like control plants.
Tables B1 to B12 below show the effects of selected compounds of the general formula (I) according to Table 1 on various harmful plants and an application rate corresponding to 1280 or 320 g/ha, which were obtained by the experimental procedure mentioned above.
As the results of Tables B1-B12 show, compounds no.

[15] = system: harmful plants ABUTH, AMARE, ECHCG, LOLRI, MATIN, POAAN, SETVI, STEME, ALOMY, DIGSA, KCHSC and VERPE; experiment: Herbicidal pre-emergence action (test C), summary of Tables C1-C12; conditions: application rate of 1280 or 320 g of active ingredient per hectare; summary in words
Source text: as §2, with “percentages.” for “percentages. For example, 100% activity=the plants have died, 0% activity=like control plants. Tables C1 to C12 below show the effects of selected compounds of the general formula (I) according to Table 1 on various harmful plants and an application rate corresponding to 1280 or 320 g/ha, which were obtained by the experimental procedure mentioned above.”
as §3
Tables C1 to C12 below show the effects of selected compounds of the general formula (I) according to Table 1 on various harmful plants and an application rate corresponding to 1280 or 320 g/ha, which were obtained by the experimental procedure mentioned above.
As the results of Tables C1-C12 show, compounds no.

[16] = system: Alopecurus myosuroides (ALOMY); experiment: Herbicidal pre-emergence action, test C (Table C9); conditions: dosage 1280 g/ha; visual scoring after about 3 weeks; 100% = plants have died, 0% = like control plants
Source text: as §2

[17] = system: Abutilon theophrasti (ABUTH); experiment: Herbicidal pre-emergence action, test C (Table C5); conditions: visual scoring after about 3 weeks, 100% = plants have died, 0% = like control plants
Source text: as §2

`CCc1ccc(Oc2cccc(CC)c2-c2cc(C(F)F)no2)nc1` [Example 1-60] was tested, and the “Post-emergence action against Poa annua (POAAN)” value (“Post-emergence action … (POAAN)” below) (Poa annua (POAAN) [1]; 320 g/ha) was 90%, the “Post-emergence action … (POAAN)” value (Poa annua (POAAN) [1]; 1280 g/ha) was 100% and the “Post-emergence action against Abutilon theophrasti (ABUTH)” value (“Post-emergence action … (ABUTH)” for short) [2] was 90%. The “Post-emergence action against Amaranthus retroflexus (AMARE)” value (from here on “Post-emergence action … (AMARE)”) ([3]; dosage 320 g/ha) was 100%, the “Post-emergence action … (AMARE)” value ([3]; dosage 1280 g/ha) was 100% and the “Post-emergence action against Stellaria media (STEME)” value (“Post-emergence action … (STEME)” below) (Stellaria media (STEME) [4]; dosage 320 g/ha) was 100%. The “Post-emergence action … (STEME)” value (Stellaria media (STEME) [4]; dosage 1280 g/ha) was 100%, the “Post-emergence action against Alopecurus myosuroides (ALOMY)” value ([5]; 320 g/ha) was 100% and the “Post-emergence action against Alopecurus myosuroides (ALOMY)” value ([5]; 1280 g/ha) was 100%. The “Post-emergence action against Digitaria sanguinalis (DIGSA)” value [6] was 100%, the “Post-emergence action against Bassia scoparia (KCHSC)” value (Bassia scoparia (KCHSC)) was 100% and the “Post-emergence action against Veronica persica (VERPE)” value (“Post-emergence action … (VERPE)” for short) (Veronica persica (VERPE) [7]; dosage 320 g/ha) was 100%. The “Post-emergence action … (VERPE)” value (Veronica persica (VERPE) [7]; dosage 1280 g/ha) was 100%, the “Pre-emergence action against Poa annua (POAAN)” value (from here on “Pre-emergence action … (POAAN)”) (Poa annua (POAAN) [8]) was 100% and the “Pre-emergence action against Setaria viridis (SETVI)” value (Setaria viridis (SETVI)) was 100%. The “Pre-emergence action against Amaranthus retroflexus (AMARE)” value (shortened to “Pre-emergence action … (AMARE)”) ([9]; dosage 1280 g/ha) was 100%, the “Pre-emergence action against Matricaria inodora (MATIN)” value [10] was 100% and the “Pre-emergence action against Stellaria media (STEME)” value (“Pre-emergence action … (STEME)” below) (Stellaria media (STEME) [11]; dosage 320 g/ha) was 100%. For the same compound, the “Pre-emergence action … (STEME)” value (Stellaria media (STEME) [11]; dosage 1280 g/ha) was 100%, the “Pre-emergence action against Digitaria sanguinalis (DIGSA)” value (“Pre-emergence action … (DIGSA)” below) [12] was 100% and the “Pre-emergence action against Veronica persica (VERPE)” value (from here on “Pre-emergence action … (VERPE)”) (Veronica persica (VERPE) [13]; dosage 1280 g/ha) was 100%. For the same compound, the “herbicidal activity against the harmful plants of Tables B1-B12 in post-emergence treatment” value [14] was “very good herbicidal activity” and the “herbicidal activity against the harmful plants of Tables C1-C12 in pre-emergence treatment” value (“herbicidal activity … in pre-emergence treatment” for short) [15] was “very good herbicidal activity”.
In the case of `FC(F)c1cc(-c2c(Oc3ccc(Cl)cn3)cccc2C2CC2)on1` [Example 1-77], the “Post-emergence action … (POAAN)” value (Poa annua (POAAN) [1]; 320 g/ha) is reported as 100%, the “Post-emergence action … (POAAN)” value (Poa annua (POAAN) [1]; 1280 g/ha) is reported as 100% and the “Post-emergence action … (ABUTH)” value [2] is reported as 90%. For the same compound, the “Post-emergence action … (AMARE)” value ([3]; dosage 1280 g/ha) was 100%, the “Post-emergence action … (STEME)” value (Stellaria media (STEME) [4]; dosage 320 g/ha) was 100% and the “Post-emergence action … (STEME)” value (Stellaria media (STEME) [4]; dosage 1280 g/ha) was 100%. For the same compound, the “Post-emergence action against Digitaria sanguinalis (DIGSA)” value [6] was 100%, the “Post-emergence action … (VERPE)” value (Veronica persica (VERPE) [7]; dosage 320 g/ha) was 100% and the “Post-emergence action … (VERPE)” value (Veronica persica (VERPE) [7]; dosage 1280 g/ha) was 100%. The “Pre-emergence action … (POAAN)” value (Poa annua (POAAN) [8]) was 100%, the “Pre-emergence action against Setaria viridis (SETVI)” value (Setaria viridis (SETVI)) was 100% and the “Pre-emergence action … (AMARE)” value ([9]; dosage 320 g/ha) was 90%. The “Pre-emergence action … (AMARE)” value ([9]; dosage 1280 g/ha) was 100%, the “Pre-emergence action … (STEME)” value (Stellaria media (STEME) [11]; dosage 320 g/ha) was 100% and the “Pre-emergence action … (STEME)” value (Stellaria media (STEME) [11]; dosage 1280 g/ha) was 100%. For the same compound, the “Pre-emergence action against Alopecurus myosuroides (ALOMY)” value [16] was 100%, the “Pre-emergence action … (DIGSA)” value [12] was 100% and the “Pre-emergence action … (VERPE)” value (Veronica persica (VERPE) [13]; dosage 320 g/ha) was 90%. The “Pre-emergence action … (VERPE)” value (Veronica persica (VERPE) [13]; dosage 1280 g/ha) was 100%, the “herbicidal activity against the harmful plants of Tables B1-B12 in post-emergence treatment” value [14] was “very good herbicidal activity” and the “herbicidal activity … in pre-emergence treatment” value [15] was “very good herbicidal activity”.
For `Cc1ccnc(-c2ccccc2Oc2ccc(Cl)cn2)c1` [Example 1-81], the “Post-emergence action … (POAAN)” value (Poa annua (POAAN) [1]; 1280 g/ha) was 90%, the “Post-emergence action … (ABUTH)” value [2] was 90% and the “Post-emergence action … (AMARE)” value ([3]; dosage 1280 g/ha) was 100%. For the same compound, the “Post-emergence action … (STEME)” value (Stellaria media (STEME) [4]; dosage 1280 g/ha) was 100%, the “Post-emergence action … (VERPE)” value (Veronica persica (VERPE) [7]; dosage 320 g/ha) was 100% and the “Post-emergence action … (VERPE)” value (Veronica persica (VERPE) [7]; dosage 1280 g/ha) was 100%. For the same compound, the “Pre-emergence action … (POAAN)” value (Poa annua (POAAN) [8]) was 100%, the “Pre-emergence action against Abutilon theophrasti (ABUTH)” value ([17]; dosage 320 g/ha) was 100% and the “Pre-emergence action against Abutilon theophrasti (ABUTH)” value ([17]; dosage 1280 g/ha) was 100%. The “Pre-emergence action … (AMARE)” value ([9]; dosage 1280 g/ha) was 100%, the “Pre-emergence action against Matricaria inodora (MATIN)” value [10] was 90% and the “Pre-emergence action … (STEME)” value (Stellaria media (STEME) [11]; dosage 1280 g/ha) was 100%. The “Pre-emergence action against Alopecurus myosuroides (ALOMY)” value [16] was 90%, the “Pre-emergence action … (DIGSA)” value [12] was 100% and the “Pre-emergence action … (VERPE)” value (Veronica persica (VERPE) [13]; dosage 1280 g/ha) was 100%. For the same compound, the “herbicidal activity against the harmful plants of Tables B1-B12 in post-emergence treatment” value [14] was “very good herbicidal activity” and the “herbicidal activity … in pre-emergence treatment” value [15] was “very good herbicidal activity”.
